Reference: patent US9884821B2, “N1-cyclic amine-N5-substituted biguanide derivatives, methods of preparing the same and pharmaceutical composition comprising the same” (IMMUNOMET THERAPEUTICS INC., priority 2013, dated 2018)
Where a name gives a salt, the structure may show the parent alone. Each block holds one compound with its values, some of them ahead of it.

Legend:
[1] = test system: AMPK; experiment: AMPK activation effect (AMPK [pT172] ELISA) in MCF7 cells; type: cell-based, human; details: 24 hours; for AMPK activation effect (%) 5 μM / AMPK activation effect (%) 10 μM / AMPK activation effect (%) 50 μM: AMPKα Thr172 phosphorylation relative to untreated cells; for AC150: concentration at which AMPK activation reached 150%
Procedure: ELISA kit (Invitrogen, Catalog No. KH00651).
MCF7 cells were cultured in a DMEM medium supplemented with 10% fatal bovine serum (commercially available from Gibco Life Technologies (US)). Thereafter, the cultured MCF7 cells were put into a 6-well plate with approximately 5×10^5 cells per well, and cultured in an incubator supplied with 5% CO2. Culture media were treated with the derivatives synthesized in the Examples at concentrations of 5, 10 and 50 uM, and then cultured for 24 hours. […] Subsequently, the cells were lysed according to a method presented in the operation manual of the AMPK [pT172] ELISA kit, and 20 μg of a cell lysate was then yielded through protein assay. Thereafter, the AMPK activation effect was obtained by determining a degree of phosphorylation of a 172nd threonine residue (Thr172) of the AMPKα from the cell lysate according to the method presented in the operation manual of the AMPK [pT172] ELISA kit.

[2] = test system: HCT116 cells; experiment: Effect of inhibiting cancer cell proliferation (MTT) in HCT116 cells; type: cell-based, human; details: for inhibition at 25 µM: read-out: Cell growth inhibition (%) at 25 μM; for inhibition at 100 µM: read-out: Cell growth inhibition (%) at 100 μM
Description: HCT116 cells derived from human colorectal cancer were used, and an effect of inhibiting cancer cell proliferation of the biguanide derivative was confirmed by measuring a concentration value (cell growth inhibition concentration, GIC50) at which cell growth was inhibited by 50% using a 3-(4,5-dimethylthiazol-2-yl)-2,5-diphenyltetrazolium bromide (MTT) reagent.
First, HCT116 cells (purchased from the KCLB) were put on a 96-well plate and cultured in a DMEM medium supplemented with 10% fatal bovine serum (commercially available from Gibco Life Technologies (US)) for 16 hours so that approximately 5,000 cells were counted in each well. Subsequently, to obtain the GIC50 value of each compound, the culture media were treated with 100 μM, 25 μM, 6.25 μM, 1.56 μM or 0.39 μM of the compound, and then cultured for 48 hours. In order to determine whether the cells survived after treatment with the compounds, MTT (commercially available from AMRESCO (US)) was added to the culture media which were then cultured for another 3 hours. Formed formazane crystals were dissolved using dimethyl sulfoxide (DMSO) and the absorbance of the resulting solution was measured at 560 nm. After the 48-hour culture, a ratio of a living cell count on a well plate treated with the compounds synthesized in the Examples to a cell count cultured on a well plate not treated with the compound was indicated as cell viability (%) according to the concentration of each treated compound. The cell viability (%) was used to plot a cell viability curve graph and calculate a concentration (GIC50) value of the compound at which the growth was inhibited by 50%, thereby confirming the inhibition effect of cancer cell proliferation.

[3] = Homo sapiens, HCT-116, 48 h, 100 μM

GI50 ([2]; Homo sapiens, HCT-116, 48 h): 18 µM
Compound: Cl.N=C(NC(=N)N1CC=CC1)Nc1ccc(C(F)(F)F)cc1 [Example 5, N1-1,2-dihydropyrrole-N5-(4-trifluoromethyl)phenyl biguanide hydrochloride]
AMPK activation effect (%) 10 μM [1]: 235%
AMPK activation effect (%) 50 μM [1]: 223%
AC150 [1]: 2.8 µM
inhibition at 100 µM [2, 3]: 99.7%

GI50 ([2]; Homo sapiens, HCT-116, 48 h): 84.8 µM
Compound: Cl.N=C(NCc1cccc(C(F)(F)F)c1)NC(=N)N1CC=CC1 [Example 12, N1-1,2-dihydropyrrole-N5-(3-trifluoromethyl)benzyl biguanide hydrochloride]
AMPK activation effect (%) 10 μM [1]: 97%
AMPK activation effect (%) 50 μM [1]: 357%
AC150 [1]: 13.8 µM
inhibition at 100 µM [2, 3]: 53.8%

GI50 ([2]; Homo sapiens, HCT-116, 48 h): 9.5 µM
Compound: Cl.N=C(NC(=N)N1CC=CCC1)Nc1ccc(C(F)(F)F)cc1 [Example 29, N1-1,2,3,6-tetrahydropyridine-N5-(4-trifluoromethyl)phenyl biguanide hydrochloride]
AMPK activation effect (%) 10 μM [1]: 551%
AC150 [1]: 1.3 µM
inhibition at 100 µM [2, 3]: 100%

GI50 ([2]; Homo sapiens, HCT-116, 48 h): 7.5 µM
Compound: Cl.N=C(NC(=N)N1CC=CCC1)Nc1cccc(OC(F)(F)F)c1 [Example 30, N1-1,2,3,6-tetrahydropyridine-N5-(3-trifluoromethoxy)phenyl biguanide hydrochloride]
AMPK activation effect (%) 10 μM [1]: 703%
AC150 [1]: 0.53 µM
inhibition at 100 µM [2, 3]: 99.7%

GI50 ([2]; Homo sapiens, HCT-116, 48 h): 114 µM
Compound: COc1cccc(NC(=N)NC(=N)N2CC=CC2)c1.Cl [Example 43, N1-1,2-dihydropyrrole-N5-(3-methoxyl)phenyl biguanide hydrochloride]
AMPK activation effect (%) 10 μM [1]: 200%
AMPK activation effect (%) 50 μM [1]: 466%
AC150 [1]: 4.7 µM
inhibition at 100 µM [2, 3]: 44.9%

GI50 ([2]; Homo sapiens, HCT-116, 48 h): 12.9 µM
Compound: Cl.N=C(NC(=N)N1CC=CC1)Nc1cccc(C(F)(F)F)c1 [Example 6, N1-1,2-dihydropyrrole-N5-(3-trifluoromethyl)phenyl biguanide hydrochloride]
AMPK activation effect (%) 10 μM [1]: 124%
AMPK activation effect (%) 50 μM [1]: 136%
AC150 [1]: >50 µM
inhibition at 100 µM [2, 3]: 99.6%

GI50 ([2]; Homo sapiens, HCT-116, 48 h): 19.1 µM
Compound: Cl.N=C(NC(=N)N1CC=CC1)Nc1ccc(OC(F)(F)F)cc1 [Example 4, N1-1,2-dihydropyrrole-N5-(4-trifluoromethoxy)phenyl biguanide hydrochloride]
AMPK activation effect (%) 10 μM [1]: 201%
AMPK activation effect (%) 50 μM [1]: 584%
AC150 [1]: 5.0 µM
inhibition at 100 µM [2, 3]: 99.7%

GI50 ([2]; Homo sapiens, HCT-116, 48 h): 8.4 µM
Compound: Cl.N=C(NC(=N)N1CC=CCC1)Nc1ccc(OC(F)(F)F)cc1 [Example 28, N1-1,2,3,6-tetrahydropyridine-N5-(4-trifluoromethoxy)phenyl biguanide hydrochloride]
AMPK activation effect (%) 10 μM [1]: 732%
AC150 [1]: 0.15 µM
inhibition at 100 µM [2, 3]: 100%

GI50 ([2]; Homo sapiens, HCT-116, 48 h): 7.9 µM
Compound: Cl.N=C(NC(=N)N1CC=CCC1)Nc1ccc(F)c(C(F)(F)F)c1 [Example 32, N1-1,2,3,6-tetrahydropyridine-N5-(4-fluoro, 3-trifluoromethyl)phenyl biguanide hydrochloride]
AMPK activation effect (%) 10 μM [1]: 837%
AC150 [1]: 0.62 µM
inhibition at 100 µM [2, 3]: 99.4%

GI50 ([2]; Homo sapiens, HCT-116, 48 h): > 100 µM
Compound: Cl.N=C(NC(=N)N1CC=CC1)Nc1ccc(F)cc1 [Example 7, N1-1,2-dihydropyrrole-N5-(4-fluoro)phenyl biguanide hydrochloride]
AMPK activation effect (%) 10 μM [1]: 94%
AMPK activation effect (%) 50 μM [1]: 109%
AC150 [1]: >50 µM
inhibition at 100 µM [2, 3]: 19.8%

More lines, now with the values behind:

Compound: CC1CCCN(C(=N)NC(=N)Nc2ccc(Br)cc2)C1.Cl (centres unmarked) [Example 68, N1-(3-methyl)piperidine-N5-(4-bromo)phenyl biguanide hydrochloride]
AMPK activation effect (%) 5 μM [1]: 52%
AMPK activation effect (%) 10 μM [1]: 136%
AC150 [1]: 13.7 µM
GI50 ([2]; Homo sapiens, HCT-116, 48 h): 45.3 µM
inhibition at 25 µM ([2]; Homo sapiens, HCT-116, 48 h): 29.4%

Compound: CC1=CCN(C(=N)NC(=N)Nc2ccc(Cl)cc2)C1.Cl [Example 17, N1-(3-methyl)-1,2-dihydropyrrole-N5-(4-chloro)phenyl biguanide hydrochloride]
AMPK activation effect (%) 10 μM [1]: 208%
AC150 [1]: 4.7 µM
GI50 ([2]; Homo sapiens, HCT-116, 48 h): 13.9 µM
inhibition at 100 µM [2, 3]: 99.7%

Compound: CC1=CCN(C(=N)NC(=N)Nc2ccc(Br)cc2)C1.Cl [Example 21, N1-(3-methyl)-1,2-dihydropyrrole-N5-(4-bromo)phenyl biguanide hydrochloride]
AMPK activation effect (%) 10 μM [1]: 156%
AC150 [1]: 11.9 µM
GI50 ([2]; Homo sapiens, HCT-116, 48 h): 10.4 µM
inhibition at 100 µM [2, 3]: 99.4%

Compound: CC1CCCCN1C(=N)NC(=N)Nc1ccc(F)c(C(F)(F)F)c1.Cl (centres unmarked) [Example 78, N1-(2-methyl)piperidine-N5-(4-fluoro, 3-trifluoromethyl)phenyl biguanide hydrochloride]
AMPK activation effect (%) 5 μM [1]: 425%
AMPK activation effect (%) 10 μM [1]: 565%
AC150 [1]: 0.5 µM
GI50 ([2]; Homo sapiens, HCT-116, 48 h): 7 µM
inhibition at 25 µM ([2]; Homo sapiens, HCT-116, 48 h): 100%

Compound: CC1CCCC(C)N1C(=N)NC(=N)Nc1ccc(Cl)cc1.Cl (centres unmarked) [Example 96, N1-(2,6-dimethyl)piperidine-N5-(4-chloro)phenyl biguanide hydrochloride]
AMPK activation effect (%) 5 μM [1]: 240%
AMPK activation effect (%) 10 μM [1]: 395%
AC150 [1]: 1.8 µM
GI50 ([2]; Homo sapiens, HCT-116, 48 h): 10.4 µM
inhibition at 25 µM ([2]; Homo sapiens, HCT-116, 48 h): 101%

Compound: N=C(NC(=N)N1CC=CCC1)Nc1ccc(Br)cc1 [Example 36, N1-1,2,3,6-tetrahydropyridine-N5-(4-bromo)phenyl biguanide hydrochloride]
AMPK activation effect (%) 10 μM [1]: 568%
AC150 [1]: 0.87 µM
GI50 ([2]; Homo sapiens, HCT-116, 48 h): 11.2 µM
inhibition at 100 µM [2, 3]: 99%

Compound: CC1CCCN(C(=N)NC(=N)Nc2ccc(OC(F)(F)F)c(F)c2)C1.Cl (centres unmarked) [Example 75, N1-(3-methyl)piperidine-N5-(3-fluoro, 4-trifluoromethoxy)phenyl biguanide hydrochloride]
AMPK activation effect (%) 5 μM [1]: 133%
AMPK activation effect (%) 10 μM [1]: 259%
AC150 [1]: 3.9 µM
GI50 ([2]; Homo sapiens, HCT-116, 48 h): 9.3 µM
inhibition at 25 µM ([2]; Homo sapiens, HCT-116, 48 h): 100%

Compound: Cc1ccc(NC(=N)NC(=N)N2CC=CCC2)cc1.Cl [Example 48, N1-1,2,3,6-tetrahydropyridine-N5-(4-methyl)phenyl biguanide hydrochloride]
AMPK activation effect (%) 10 μM [1]: 178%
AMPK activation effect (%) 50 μM [1]: 691%
AC150 [1]: 4.9 µM
GI50 ([2]; Homo sapiens, HCT-116, 48 h): 42.5 µM
inhibition at 100 µM [2, 3]: 97.6%

Compound: N1-1,2-dihydropyrrole-N5-(4-methyl)phenyl biguanide hydrochloride [Example 50]
AMPK activation effect (%) 10 μM [1]: 317%
AMPK activation effect (%) 50 μM [1]: 440%
AC150 [1]: 1.4 µM
Cell growth inhibition (%) at 100 μM ([2]; 100 μM, 48 hours): 46.0%
GI50 ([2]; 48 hours): 117 µM

Compound: CC1CCCCN1C(=N)NC(=N)Nc1ccc(OC(F)(F)F)cc1.Cl (centres unmarked) [Example 72, N1-(2-methyl)piperidine-N5-(4-trifluoromethoxy)phenyl biguanide hydrochloride]
AMPK activation effect (%) 5 μM [1]: 210%
AMPK activation effect (%) 10 μM [1]: 386%
AC150 [1]: 2.0 µM
GI50 ([2]; Homo sapiens, HCT-116, 48 h): 8 µM
inhibition at 25 µM ([2]; Homo sapiens, HCT-116, 48 h): 100%

Compound: COc1ccc(NC(=N)NC(=N)N2CC=C(C)C2)cc1.Cl [Example 22, N1-(3-methyl)-1,2-dihydropyrrole-N5-(4-methoxyl)phenyl biguanide hydrochloride]
AMPK activation effect (%) 10 μM [1]: 116%
AMPK activation effect (%) 50 μM [1]: 209%
AC150 [1]: 24.5 µM
GI50 ([2]; Homo sapiens, HCT-116, 48 h): 18.6 µM
inhibition at 100 µM [2, 3]: 37.1%
